Like-named read-outs stand apart in the source and are kept apart here. Blank lines part the entries; values can stand above or below the compound they belong to.
Tests used:
urokinase = urokinase (Homo sapiens, UniProt P00749); assay: Inhibiting constants with respect to urokinase; format: biochemical; details: Example 8a table
Text: (§1) For this reason, two selected representatives of the inhibitors without PEG described in Tables 1 and 2 and one PEG-coupled inhibitor were examined with respect to their inhibiting effect on these enzymes.
(§2) Inhibiting constants of selected inhibitors with respect to the enzymes thrombin, plasmin, urokinase and tPA (values given in nM).

tPA = tPA (Homo sapiens, UniProt P00750); assay: Inhibiting constants with respect to tPA; format: biochemical; details: Example 8a table
Chain of tPA (P00750 36-562, species assumed): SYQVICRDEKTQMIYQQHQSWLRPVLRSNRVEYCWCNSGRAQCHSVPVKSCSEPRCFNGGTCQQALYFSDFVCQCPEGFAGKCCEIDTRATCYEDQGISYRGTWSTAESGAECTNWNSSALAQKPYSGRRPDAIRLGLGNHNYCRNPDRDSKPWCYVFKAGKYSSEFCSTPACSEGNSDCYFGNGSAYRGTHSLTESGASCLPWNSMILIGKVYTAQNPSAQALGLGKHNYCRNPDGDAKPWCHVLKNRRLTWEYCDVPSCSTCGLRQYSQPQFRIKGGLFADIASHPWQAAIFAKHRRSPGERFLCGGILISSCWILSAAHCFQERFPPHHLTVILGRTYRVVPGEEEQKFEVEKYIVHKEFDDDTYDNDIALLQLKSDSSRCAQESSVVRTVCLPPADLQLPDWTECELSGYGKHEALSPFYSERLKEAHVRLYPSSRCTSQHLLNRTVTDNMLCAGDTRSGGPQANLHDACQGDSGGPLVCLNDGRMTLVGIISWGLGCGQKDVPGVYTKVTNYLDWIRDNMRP
Text: as §1, §2

plasmin = plasmin (Homo sapiens, UniProt P00747); assay: Inhibiting constants with respect to plasmin; format: biochemical; details: Example 8a table
Chain of plasmin (P00747 581-810 limits assumed, species assumed): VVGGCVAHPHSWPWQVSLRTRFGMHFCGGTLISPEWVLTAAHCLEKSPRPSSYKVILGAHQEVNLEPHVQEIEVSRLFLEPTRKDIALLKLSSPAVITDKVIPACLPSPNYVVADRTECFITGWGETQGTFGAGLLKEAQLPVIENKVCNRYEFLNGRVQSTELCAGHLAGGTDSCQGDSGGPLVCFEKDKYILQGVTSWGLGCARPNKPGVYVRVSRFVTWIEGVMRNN
Chain of plasmin (P00747 97-580 partner limits assumed, species assumed): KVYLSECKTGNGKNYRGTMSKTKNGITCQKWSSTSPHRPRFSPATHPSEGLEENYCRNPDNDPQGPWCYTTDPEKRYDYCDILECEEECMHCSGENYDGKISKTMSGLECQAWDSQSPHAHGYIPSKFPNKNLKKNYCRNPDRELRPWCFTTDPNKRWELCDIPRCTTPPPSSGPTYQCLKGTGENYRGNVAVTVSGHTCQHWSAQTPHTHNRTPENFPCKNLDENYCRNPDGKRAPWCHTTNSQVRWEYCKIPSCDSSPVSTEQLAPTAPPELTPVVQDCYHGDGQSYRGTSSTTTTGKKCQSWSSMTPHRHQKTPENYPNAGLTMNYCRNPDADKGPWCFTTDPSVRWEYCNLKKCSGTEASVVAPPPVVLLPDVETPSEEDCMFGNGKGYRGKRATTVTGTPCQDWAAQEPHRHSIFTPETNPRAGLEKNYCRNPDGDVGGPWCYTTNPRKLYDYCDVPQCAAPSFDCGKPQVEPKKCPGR
Text: as §1, §2

human α-thrombin = biological target: T1, human α-thrombin (Homo sapiens, UniProt P00734); assay: Determination of Ki for thrombin inhibition (chromogenic or fluorogenic substrate, Dixon); format: biochemical; details: for KiTrypsin/KiThrombin: Example 8, selectivity quotient
T1 construct: 50 μl human α-thrombin (Kordia); purchased Kordia
Procedure: The Ki values are the average values of at least three calculations.
For determining the thrombin inhibiting effect of all reversibly binding inhibitors and inhibitor conjugates with inhibiting constants smaller than 1 nM, a fluorescence spectrometer (LS50B from the company Perkin Elmer) was used. […] The Ki values are the average values of at least three calculations.

trypsin = biological target: T2, trypsin (Bos taurus, UniProt P00760); assay: Ki values for trypsin, determined analogously; format: biochemical
T2 sequence (P00760 24-246): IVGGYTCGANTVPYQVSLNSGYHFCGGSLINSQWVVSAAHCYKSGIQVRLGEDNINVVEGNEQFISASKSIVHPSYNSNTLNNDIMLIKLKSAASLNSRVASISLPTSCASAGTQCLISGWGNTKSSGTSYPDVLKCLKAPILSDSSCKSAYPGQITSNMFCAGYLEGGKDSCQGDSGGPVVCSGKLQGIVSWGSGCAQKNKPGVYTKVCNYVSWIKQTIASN
Procedure: The Ki values for trypsin were determined analogously.
For optimizing the inhibitor conjugates, in particular of the following Examples 1 and 2, suitable groups R1 were sought which allow as strong a thrombin inhibition as possible. For examining the selectivity of the compounds, the inhibiting constants for trypsin were determined as well. The higher the quotient [KiTrypsin/KiThrombin], the more selectively the compound functions as a thrombin inhibitor. In order to facilitate the synthesis, this optimization was first carried out without coupling a polyalkylene glycol group to inhibitor molecules of formula (II) as listed in Table I. These compounds, which are active as thrombin inhibitors themselves, can be used as synthetic intermediates for the inhibitor conjugates of formula (I). As a central component, a glycyl-prolyl-dipeptide was consistently incorporated into the inhibitors.

thrombin [1] = biological target: T3, thrombin (Homo sapiens, UniProt P00734); details: taken from the literature, cited from earlier work
thrombin [2] = biological target: T3, thrombin; assay: Kinetic constants of chloromethyl ketone inhibitors (method of Stein and Trainor); format: biochemical; details: chloromethyl ketone inhibitor; for Ki: read-out: Kii
[3] = Elimination of the inhibitor conjugates in rats (blood level, urine recovery, clotting test); format: in vivo; details: female, Wistar, rat; for half-life: blood
Procedure: Preliminary remarks: Female Wistar rats with a body weight between 150 to 250 g were used for the experiments. The animals were kept under conventional conditions and were provided with standard food and water ad libitum. Anaesthetization was carried out with 1.5 g ethylurethane per kg of body weight. Then the right and left jugular veins were prepared and catheters were inserted so that blood could be drawn at different points of time. The urine was collected throughout the entire test period and the inhibitor concentration was determined by means of a clotting test.

[4] = Example 8, read-out: KiThrombin
[5] = Table I, formula (II) compounds
[6] = Table 2, formula (III) compounds

Compound: 4-methoxy-benzenesulfonyl-Asn(PEG2000-OMe)-Pro-4-amidinobenzylamide
Ki (urokinase): 157000 nM | Ki (tPA): 599000 nM | Ki (plasmin): 33500 nM | KiTrypsin/KiThrombin (human α-thrombin): 174 | Ki (human α-thrombin; [4]): 0.53 nM | Ki (trypsin; Example 8, read-out: KiTrypsin): 92.5 nM

Compound: COc1ccc(S(=O)(=O)NCC(=O)N2CCC[C@H]2C(=O)NCc2ccc(C(=N)N)cc2)cc1 [1c]
Ki (urokinase): 225000 nM | Ki (tPA): 630 nM | Ki (plasmin): 5800 nM | Ki Trypsin/Ki Thrombin (human α-thrombin; Table 2, selectivity quotient): 23.4 | Ki (human α-thrombin; [5]): 0.97 nM | Ki Trypsin/Ki Thrombin (human α-thrombin; Table I, selectivity quotient): 23.4

Compound: NC(N)=NCCC[C@H](NC(=O)[C@@H]1CCCN1C(=O)[C@H](N)Cc1ccccc1)C(=O)CCl [PPACK, D-Phe-Pro-Arg-CH2—Cl]
Kinact/Ki (thrombin [1]): 4.4e+06 M⁻¹ s⁻¹ | kinact (thrombin [1]): 0.11 s⁻¹ | Ki (thrombin [1]; read-out: Kii): 25 nM

Compound: N=C(N)NCCC[C@H](NC(=O)[C@@H]1CCCN1C(=O)[C@@H](CC1CCCCC1)NCC(=O)O)C(=O)CCl.O=C(O)C(F)(F)F.O=C(O)C(F)(F)F [analogous non-PEG-coupled compound, H-d-N(CH2—COOH)Cha-Pro-Arg-CH2—Cl×2 trifluoroacetic acid, reference compound]
Kinact/Ki (thrombin [2]): 2.1e+07 M⁻¹ s⁻¹ | kinact (thrombin [2]): 0.079 s⁻¹ | Ki (thrombin [2]): 3.8 nM

Compound: N=C(N)c1ccc(CNC(=O)[C@@H]2CCCN2C(=O)[C@H](CC(=O)OCc2ccccc2)NS(=O)(=O)c2ccc3ccccc3c2)cc1 [compound 36]
Ki (human α-thrombin; [6]): 1.3 nM | Ki Trypsin/Ki Thrombin (human α-thrombin; Table 2, selectivity quotient): 13.6 | Ki (trypsin; [6]): 17.6 nM

Compound: N=C(N)c1ccc(CNC(=O)[C@@H]2CCCN2C(=O)[C@H](CN)NS(=O)(=O)c2ccc3ccccc3c2)cc1 [compound 37]
Ki (human α-thrombin; [6]): 2.4 nM | Ki Trypsin/Ki Thrombin (human α-thrombin; Table 2, selectivity quotient): 4.3 | Ki (trypsin; [6]): 10.3 nM

Compound: N=C(N)c1ccc(CNC(=O)[C@@H]2CCCN2C(=O)[C@@H](CC(N)=O)NS(=O)(=O)c2ccc3ccccc3c2)cc1 [compound 43]
Ki (human α-thrombin; [6]): 52.5 nM | Ki Trypsin/Ki Thrombin (human α-thrombin; Table 2, selectivity quotient): 0.42 | Ki (trypsin; [6]): 22.4 nM

Compound: N=C(N)N1CCC(CNC(=O)[C@@H]2CCCN2C(=O)[C@@H](CC2CCCCC2)NCC(=O)NCC2COCCOCCOCCOCCO2)CC1 (some centres unmarked) [inhibitor structure (VI)]
half-life ([3]; sc, rats, subcutaneous administration of 5 mg/kg): ~5.83 h

Compound: D-N(CH2—CO—NH-PEG5000-OMe)Cha-Pro-4-(amidomethyl)-N(amidino)piperidine×2 HCl
KiTrypsin/KiThrombin (human α-thrombin): 100 | Ki (human α-thrombin; [4]): 2.4 nM | Ki (human α-thrombin; [5]): 3.5 nM | Ki Trypsin/Ki Thrombin (human α-thrombin; Table I, selectivity quotient): 1.8 | Ki (trypsin; Example 8, read-out: KiTrypsin): 239 nM | Ki (trypsin; [5]): 6.2 nM

Compound: H-D-N(CH2—CO—NH-PEG5000-OMe)Cha-Pro-4-(amidino)benzylamide
KiTrypsin/KiThrombin (human α-thrombin): 3.5 | Ki (human α-thrombin; [4]): 0.97 nM | Ki (human α-thrombin; [5]): 1.9 nM | Ki Trypsin/Ki Thrombin (human α-thrombin; Table I, selectivity quotient): 1.6 | Ki (trypsin; Example 8, read-out: KiTrypsin): 3.4 nM | Ki (trypsin; [5]): 3 nM

Compound: H-d-N(CH2—CONH-PEG2000-OMe)Cha-Pro-Arg-CH2—Cl×2 trifluoroacetic acid
Kinact/Ki (thrombin [2]): 7.5e+06 M⁻¹ s⁻¹ | kinact (thrombin [2]): 0.08 s⁻¹ | Ki (thrombin [2]): 10.6 nM | Ki (human α-thrombin; [5]): 3.8 nM | Ki Trypsin/Ki Thrombin (human α-thrombin; Table I, selectivity quotient): 0.97 | Ki (trypsin; [5]): 3.7 nM

Now from value to compound:

Ki (human α-thrombin; [6]): 0.045 nM | Ki Trypsin/Ki Thrombin (human α-thrombin; Table 2, selectivity quotient): 911 | Ki (trypsin; [6]): 41 nM
Compound: COc1ccc(S(=O)(=O)N[C@@H](CC(=O)NCc2ccc(C#N)cc2)C(=O)N2CCC[C@H]2C(=O)NCc2ccc(C(=N)N)cc2)cc1 [compound 44]

Ki (human α-thrombin; [6]): 0.061 nM | Ki Trypsin/Ki Thrombin (human α-thrombin; Table 2, selectivity quotient): 639 | Ki (trypsin; [6]): 39 nM
Compound: COc1ccc(S(=O)(=O)N[C@@H](CC(=O)NCc2ccc(CN)cc2)C(=O)N2CCC[C@H]2C(=O)NCc2ccc(C(=N)N)cc2)cc1 [compound 45]

Ki (human α-thrombin; [6]): 0.065 nM | Ki Trypsin/Ki Thrombin (human α-thrombin; Table 2, selectivity quotient): 600 | Ki (trypsin; [6]): 39 nM
Compound: COc1ccc(S(=O)(=O)N[C@@H](CC(=O)NCc2ccccc2)C(=O)N2CCC[C@H]2C(=O)NCc2ccc(C(=N)N)cc2)cc1 [compound 47]

Ki (human α-thrombin; [6]): 0.08 nM | Ki Trypsin/Ki Thrombin (human α-thrombin; Table 2, selectivity quotient): 512 | Ki (trypsin; [6]): 41 nM
Compound: COc1ccc(S(=O)(=O)N[C@@H](CC(=O)NCc2cccc(CN)c2)C(=O)N2CCC[C@H]2C(=O)NCc2ccc(C(=N)N)cc2)cc1 [compound 48]

Ki (human α-thrombin; [6]): 0.21 nM | Ki Trypsin/Ki Thrombin (human α-thrombin; Table 2, selectivity quotient): 181 | Ki (trypsin; [6]): 38 nM
Compound: COc1ccc(S(=O)(=O)N[C@@H](CC(=O)OCc2ccccc2)C(=O)N2CCC[C@H]2C(=O)NCc2ccc(C(=N)N)cc2)cc1 [compound 49]

Ki (urokinase): 52000 nM | Ki (tPA): 47000 nM | Ki (plasmin): 17500 nM | Ki (human α-thrombin; [6]): 0.36 nM | Ki Trypsin/Ki Thrombin (human α-thrombin; Table 2, selectivity quotient): 147
Compound: COc1ccc(S(=O)(=O)NC(CC(N)=O)C(=O)N2CCCC2C(=O)NCc2ccc(C(=N)N)cc2)cc1 (centres unmarked) [compound 50]

Ki (human α-thrombin; [6]): 0.255 nM | Ki Trypsin/Ki Thrombin (human α-thrombin; Table 2, selectivity quotient): 67 | Ki (trypsin; [6]): 17 nM
Compound: COc1ccc(S(=O)(=O)N[C@@H](CO)C(=O)N2CCC[C@H]2C(=O)NCc2ccc(C(=N)N)cc2)cc1 [compound 51]

Ki (human α-thrombin; [6]): 0.68 nM | Ki Trypsin/Ki Thrombin (human α-thrombin; Table 2, selectivity quotient): 31 | Ki (trypsin; [6]): 21.4 nM
Compound: COC(=O)C[C@H](NS(=O)(=O)c1ccc(OC)cc1)C(=O)N1CCC[C@H]1C(=O)NCc1ccc(C(=N)N)cc1 [compound 52]

half-life ([3]; intravenous administration of 10 mg/kg): ~0.275 h | dose excreted ([3]; urine, sc, rats, subcutaneous administration, read-out: cumulative percentage recovery in the urine): ~58%
Compound: N=C(N)N1CCC(CNC(=O)[C@@H]2CCCN2C(=O)[C@@H](CC2CCCCC2)NCC(=O)O)CC1 [formula (IV)]

Reference: US7407982B2, “Oligo or polyalkylene glycol-coupled thrombin inhibitors” (HaemoSys GmbH, priority 2001, dated 2008)
